Some test systems named below: LXFL 529; TK-10; HCT-15; SF-295; HOP-62; EKVX; M14; SK-MEL-28; SK-OV-3; MOLT-4; SNB-75; 786-0; UACC-62; RXF 393; ACHN; OVCAR-4; SK-MEL-2; NCI-H23; HOP-92; BT-549.
Assay in all cases: NCI-60 cell line screen, 48 h

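48-hour exposure; five concentrations; linearly interpolated endpoints. GI50 marks 50% less growth.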 The source made the active and inactive calls. Rule as the data show it: active = GI50 up to about 1.1 µM and inactive = higher.

Turning to `C/C(=N\NC(N)=O)C(CN1CCCCC1)C(c1ccccc1)c1c(O)c2ccccc2oc1=O` (stereo not given), the GI50 with LXFL 529 was > 100 µM (inactive); in the assay with TK-10, > 100 µM (inactive); in the assay with HCT-15 it was above 100 µM; in the assay on SF-295 it was > 100 µM (inactive); in the assay with HOP-62, > 100 µM (inactive); in the assay on EKVX, > 100 µM (inactive). Further, the GI50 in the assay with M14 is > 100 µM (inactive); in the assay on SK-MEL-28, > 100 µM (inactive); in the assay with SK-OV-3 it was > 100 µM (inactive); in the assay with MOLT-4, > 100 µM (inactive); in the assay on SNB-75 it was > 100 µM (inactive); in the assay on 786-0 it was 0.6 µM (active). Moreover, the GI50 with UACC-62, with RXF 393, with ACHN, with OVCAR-4 and with SK-MEL-2 was > 100 µM (inactive) in each case.

As for `COc1ccc2c(CCNS(=O)(=O)c3ccccc3)c(C(C)=O)[nH]c2c1[N+](=O)[O-]`, the GI50 in the assay on LXFL 529 was > 100 µM (inactive); with HCT-15, above 100 µM; with SF-295, 63.7 µM (inactive); with HOP-62, 86.7 µM (inactive); in the assay on NCI-H23, > 100 µM (inactive); with M14, > 100 µM (inactive). In addition, the GI50 in the assay with SK-MEL-28 is > 10 µM (inactive); in the assay with MOLT-4 it was > 100 µM (inactive); with 786-0, 77.8 µM (inactive); in the assay with UACC-62 it was 48.5 µM (inactive); in the assay on ACHN, > 100 µM (inactive); in the assay on OVCAR-4, 28.4 µM (inactive). The GI50 in the assay with SK-MEL-2 is > 100 µM (inactive).

For `CCOC(=O)C(=Cc1ccc(C(=O)OC)cc1)C(=O)OCC`, the GI50 in the assay on LXFL 529 is 1.75 µM (inactive); with TK-10 it was 2.88 µM (inactive); in the assay with HCT-15, 2.37 µM; in the assay on SF-295, 5.26 µM (inactive); in the assay with HOP-92, 1.67 µM (inactive); with HOP-62, 2.2 µM (inactive). The GI50 in the assay on EKVX is 11.1 µM (inactive); in the assay with NCI-H23, 1.76 µM (inactive); in the assay with M14 it was 1.69 µM (inactive); with SK-MEL-28, 1.71 µM (inactive); in the assay on SK-OV-3 it was 13.6 µM (inactive); in the assay on MOLT-4, 2.61 µM (inactive). The GI50 with SNB-75 is 2.07 µM (inactive); with 786-0 it was 1.62 µM (inactive); in the assay on UACC-62, 2.04 µM (inactive); in the assay with ACHN it was 1.69 µM (inactive); in the assay on OVCAR-4 it was 3.78 µM (inactive); in the assay on SK-MEL-2, 1.75 µM (inactive).

Regarding `O=C(CC(=O)Nc1cccc(Cl)c1)NNCC(=O)Nc1nnc(-c2ccccc2)s1`, the GI50 was 41.3 µM (inactive) in the assay with LXFL 529; 45.2 µM (inactive) in the assay on TK-10; 39.3 µM with HCT-15; > 100 µM (inactive) in the assay on SF-295; 21.9 µM (inactive) in the assay on HOP-62; 57.3 µM (inactive) in the assay with EKVX. The GI50 in the assay on NCI-H23 was 94.6 µM (inactive); with M14, 30.4 µM (inactive); with SK-MEL-28 it was > 100 µM (inactive); with SK-OV-3 it was 26.4 µM (inactive); in the assay on MOLT-4 it was 34.9 µM (inactive); in the assay with SNB-75, 9.38 µM (inactive). The GI50 in the assay on 786-0 was 16.4 µM (inactive); in the assay with UACC-62, 62.4 µM (inactive); in the assay with ACHN, 39.8 µM (inactive); with OVCAR-4, 2.46 µM (inactive); with SK-MEL-2 it was > 100 µM (inactive).

As for `CC(C)C(Nc1c2ccccc2[n+]([O-])c2ccccc12)C(=O)O` (stereo not given), the GI50 in the assay with LXFL 529 was 32.4 µM (inactive); in the assay on TK-10 it was > 100 µM (inactive); with HCT-15 it was 45.9 µM; in the assay on SF-295, > 100 µM (inactive); in the assay with HOP-62 it was > 100 µM (inactive); with EKVX it was > 100 µM (inactive). In addition, the GI50 was 36 µM (inactive) in the assay on NCI-H23; 91.2 µM (inactive) in the assay on M14; 43.1 µM (inactive) with SK-MEL-28; > 100 µM (inactive) with SK-OV-3; 10 µM (inactive) with MOLT-4; 58.9 µM (inactive) with SNB-75. Moreover, the GI50 with 786-0 was > 100 µM (inactive); with UACC-62 it was 57.3 µM (inactive); with ACHN it was 35.2 µM (inactive); in the assay on OVCAR-4 it was 65.8 µM (inactive); in the assay with SK-MEL-2 it was 84.9 µM (inactive).

With `Cn1c(=O)c2[nH]cnc2n(CC(N)=O)c1=O`, the GI50 with LXFL 529 was > 100 µM (inactive); with TK-10, > 100 µM (inactive); in the assay with HCT-15, above 100 µM; in the assay with HOP-92, > 100 µM (inactive); in the assay on HOP-62, > 100 µM (inactive); in the assay with EKVX, > 100 µM (inactive). Further, the GI50 in the assay on NCI-H23, with M14, in the assay with SK-MEL-28, in the assay with SK-OV-3, in the assay with MOLT-4 and in the assay on SNB-75 was > 100 µM (inactive) in each case. For the same compound, the GI50 in the assay with 786-0, with UACC-62, in the assay on ACHN and in the assay with SK-MEL-2 was > 100 µM (inactive) each time.

For `CCOC(=O)C1S/C(=N\c2ccc(Cl)cc2)N=C1C` (stereo not given), the GI50 is > 10 µM (inactive) in the assay with LXFL 529; 28.4 µM (inactive) with TK-10; 16.1 µM in the assay on HCT-15; 19.6 µM (inactive) with SF-295; 15.9 µM (inactive) with HOP-92; 20.2 µM (inactive) in the assay with HOP-62. Also, the GI50 was 21.4 µM (inactive) in the assay on EKVX; 18 µM (inactive) in the assay on NCI-H23; 20.5 µM (inactive) with SK-MEL-28; 16.7 µM (inactive) with MOLT-4; 21.3 µM (inactive) in the assay on SNB-75; 16.9 µM (inactive) with 786-0. Moreover, the GI50 in the assay on RXF 393 was 16.6 µM (inactive); in the assay with ACHN it was 20.5 µM (inactive); with OVCAR-4, 24.7 µM (inactive); in the assay with SK-MEL-2, 22.6 µM (inactive).

With `Cc1cc(NC(=O)NC(=O)c2ccccc2NC(=O)CN)ccc1Oc1ncc(Br)cn1`, the GI50 was 1.73 µM (inactive) in the assay with LXFL 529; 9.62 µM (inactive) in the assay with TK-10; 1.41 µM in the assay on HCT-15; 0.0661 µM (active) with SF-295; 3.6 µM (inactive) in the assay on HOP-92; 0.215 µM (active) with HOP-62. The GI50 in the assay with EKVX was 1.52 µM (inactive); in the assay with NCI-H23, 0.74 µM (active); with M14 it was 0.592 µM (active); in the assay with SK-MEL-28, 0.859 µM (active); with MOLT-4 it was 2.5 µM (inactive); with SNB-75, 0.139 µM (active). The GI50 is 0.502 µM (active) in the assay on 786-0; 0.207 µM (active) in the assay with UACC-62; 0.0439 µM (active) in the assay with RXF 393; 9.44 µM (inactive) in the assay with ACHN; 20 µM (inactive) in the assay with OVCAR-4; 0.437 µM (active) in the assay with SK-MEL-2.

`CN1CCN(CCNc2ccc(CO)c3sc4ccccc4c(=O)c23)CC1`: the GI50 was 9.71 µM (inactive) with LXFL 529; 18.3 µM (inactive) in the assay with TK-10; 6.32 µM in the assay with HCT-15; 5.93 µM (inactive) in the assay with SF-295; 13.4 µM (inactive) in the assay with HOP-92; 5.06 µM (inactive) in the assay on HOP-62. Besides, the GI50 is 12.9 µM (inactive) in the assay with NCI-H23; 14.1 µM (inactive) with M14; 15.5 µM (inactive) in the assay on SK-MEL-28; 3.15 µM (inactive) with MOLT-4; 9.48 µM (inactive) with SNB-75; 5.87 µM (inactive) with 786-0. In addition, the GI50 was 13 µM (inactive) with UACC-62, 13.8 µM (inactive) with ACHN, 10.5 µM (inactive) with OVCAR-4 and 15 µM (inactive) in the assay with SK-MEL-2.

Take `COC(=O)c1cc2c3c(ccc2[nH]1)N(C(=O)c1cc2cc(OC)c(OC)c(OC)c2[nH]1)CC3CCl` (stereo not given): the GI50 is > 54.2 µM (inactive) in the assay with TK-10; 5.71 µM with HCT-15; 7.78 µM (inactive) in the assay with SF-295; > 100 µM (inactive) in the assay with HOP-92; > 21.8 µM (inactive) with HOP-62; > 100 µM (inactive) in the assay on EKVX. For the same compound, the GI50 was 5.56 µM (inactive) in the assay on NCI-H23; 3.51 µM (inactive) with BT-549; > 27.5 µM (inactive) in the assay with M14; > 24.1 µM (inactive) in the assay with SK-MEL-28; > 100 µM (inactive) in the assay with SK-OV-3; 1.57 µM (inactive) with MOLT-4. The GI50 in the assay on SNB-75 is > 100 µM (inactive); in the assay on 786-0 it was 3.79 µM (inactive); in the assay with UACC-62, 4.54 µM (inactive); with RXF 393, 5.51 µM (inactive); with ACHN, 5.62 µM (inactive); in the assay with OVCAR-4, 8.34 µM (inactive). The GI50 with SK-MEL-2 is > 100 µM (inactive).

Take `CC1=C2CC(C)(C)/C=C\C(=O)/C(C)=C\C3=C[C@H](C)C[C@]3(O2)C1=O`: the GI50 with TK-10 is 2.03 µM (inactive); in the assay on HCT-15 it was 0.627 µM; with SF-295 it was 8.87 µM (inactive); in the assay with HOP-92, 1.09 µM (active); in the assay with HOP-62 it was 6.43 µM (inactive); in the assay on EKVX it was 1.87 µM (inactive). The GI50 in the assay on NCI-H23 is 1.08 µM (active); with BT-549 it was 0.518 µM (active); in the assay on M14, 0.494 µM (active); in the assay on SK-MEL-28 it was 0.798 µM (active); with SK-OV-3, 9.51 µM (inactive); in the assay with MOLT-4 it was 0.195 µM (active). Moreover, the GI50 was 4.1 µM (inactive) with SNB-75; 0.516 µM (active) in the assay on 786-0; 1.05 µM (active) in the assay with UACC-62; 0.597 µM (active) with RXF 393; 1.03 µM (active) in the assay with ACHN; 1.52 µM (inactive) in the assay with OVCAR-4. For the same compound, the GI50 with SK-MEL-2 is 2.4 µM (inactive).

`O=C(O)C1CCCCC1C(=O)Nn1cnnc1` (stereo not given): the GI50 in the assay on TK-10 is > 100 µM (inactive); in the assay with HCT-15, above 100 µM; in the assay on SF-295, > 100 µM (inactive); in the assay on HOP-92, > 100 µM (inactive); with HOP-62 it was > 100 µM (inactive); in the assay with EKVX, > 100 µM (inactive). The GI50 in the assay with NCI-H23, in the assay with BT-549, with M14, in the assay on SK-MEL-28, in the assay on SK-OV-3 and in the assay on MOLT-4 was > 100 µM (inactive) throughout. The GI50 in the assay on SNB-75, in the assay on 786-0, with UACC-62, with RXF 393, in the assay on ACHN and in the assay on OVCAR-4 was > 100 µM (inactive) throughout. In the assay with SK-MEL-2, the GI50 was > 100 µM (inactive).

For the origin of these results see ChEMBL document CHEMBL1201862, “PubChem BioAssay data set” (2004).
